The MBC is the lowest tested concentration that kills the bacteria rather than only halting them. A higher MBC goes with less potent killing.

The source of these data is patent US12161630B2, “Methods to control infection using new generation small molecule growth inhibitors” (priority 2017, dated 2024).

The test system of assay [1] is Avian Pathogenic E. coli (O1, O2, O8, O15, O18, O35, O78, O109, and O115). As to the kind of experiment: Activity on avian pathogens at 200 μM, Avian Pathogenic E. coli. In kind it is cell-based, Escherichia coli. The procedure:
(§1) FIGS. 1(A-E). Selection of potent Salmonella growth inhibitors. FIG. 1A: High-throughput screening of 4182 SMs against S. typhimurium WT at 200 μM. Negative value: growth inhibition; Positive value: growth stimulation compared to S. typhimurium growth not treated. The black line represents growth inhibition caused by 2% DMSO. FIG. 1B: Activity of 19 S. typhimurium growth inhibitors against additional Salmonella serotypes. Light grey cells: total growth inhibition; dark grey cells: bacterial growth observed; black cells: not determined. FIG. 1C: Dose-response assays of the selected 19 SMs against S. typhimurium WT. […] The black line represents a cut off of nine serotypes killed per SM. FIG. 1E: Activity spectra of the selected four SMs at 200 μM each on several avian-pathogens (Campylobacter jejuni, Escherichia coli APEC, and Mycoplasma gallisepticum) and beneficial gut bacteria (remaining species). E. coli APEC refers to Avian Pathogenic E. coli and includes E. coli O1, O2, O8, O15, O18, O35, O78, O109, and O115. Light grey cells: cidal effect; dark grey cells: bacterial growth observed. Left side: phylogenetic tree based on NCBI taxonomic ID built with PhyloT software.
(§2) The selected four SMs were tested on twelve beneficial-commensal gut bacteria at 200 μM (FIG. 1E). […] These four SMs were also growth inhibitors of other avian pathogens at 200 μM (unpublished data, FIG. 1E). […]

Assay [2] relates to biofilm-protected S. typhimurium WT. As to the kind of experiment: MBEC-HTP assay on biofilm-protected S. typhimurium. In kind it is cell-based, Salmonella enterica subsp. enterica serovar Typhimurium LT2. The note with it: 18 hrs incubation, 0.2×MBC to 4×MBC. As for the experimental part: Antimicrobial susceptibility testing on biofilm-protected S. typhimurium using the MBEC™-HTP assay: The antimicrobial efficacy of the four SMs was tested once the S. Typhimurium WT was protected by the […] biofilm matrix. The experiment was performed as described by the manufacturer (innovotech.ca/MBEC_HTPInstructions_Rev1.pdf). Briefly, 150 μl of an overnight suspension of S. typhimurium WT normalized at 0.05 OD600 in LB medium was transferred into each well of a sterile, non-treated, flat bottom 96-wells plate. The plate was covered using the lid containing the pegs (innovotech; 19111), sealed with parafilm, and incubated for 36 hrs at 37° C. […] The plate was incubated for 18 hrs at 37° C., 110 rpm in the dark. After incubation, the lid was transferred into a new 96-wells plate containing 200 μl of sterile water and sonicated for 60 min at room temperature (Aquasonic model 50HT, VWR). Then the supernatant was ten-fold serial diluted, plated in agar plate, and incubated at 37° C. for 36 hrs. The lowest SM concentration giving a complete clearance was considered as the minimum biofilm eradication concentration (MBEC).

The subject of assay [3] is S. typhimurium WT internalized in HD11 cells. As to the kind of experiment: S. typhimurium intracellular survival in infected HD11 cells. The assay is classed as cell-based. The note with it: Salmonella enterica. As for the experimental part: Effect of the four SMs on S. typhimurium intracellular survival in cells lines: The ability of four SMs to clear S. typhimurium WT […] was evaluated using three cell lines (Caco-2 cells, HD11, and THP-1 cells). The Salmonella intracellular survival as assessed as described (13). A multiplicity of infection “MOI” of 10 was used. Infected cells were treated with 1 μl of SMs (final concentration ranged between 100 μM and 6.25 μM) at 37° C. for 24 hrs in humidified, 5% CO2 incubator. Following incubation, cells were washed once with 150 μl of 1×PBS, lysed with 0.1% Triton-100X, serial ten-fold diluted in 1×PBS, and plated on agar plate. Plates were incubated at 37° C. for 24 hrs to determine the intracellular survival. Cells not infected and not treated, and cells infected and treated with 2% DMSO were used as controls.

The next assay deals with C. clostridioforme. As to the kind of experiment: Activity spectrum at 200 μM, C. clostridioforme. The assay is classed as cell-based, Clostridium clostridioforme. As for the experimental part:
(§3) SM activity spectrum: The 128 selected SMs were tested for antimicrobial effects on nine different serotypes frequently implicated in foodborne gastroenteritis outbreaks. Later in the study, the four best SMs were tested against twelve beneficial/commensal gut bacteria. Both screens were performed at 200 μM as described in the primary screening. Growth conditions for each strain are described in Table 1.

In a further assay the test system is C. jejuni 81-176. Description: Activity on avian pathogens at 200 μM, C. jejuni. The assay is classed as cell-based, Campylobacter jejuni. The procedure: as §1, §2
A further assay relates to L. rhamnosus GG. As to the kind of experiment: Activity spectrum at 200 μM, L. rhamnosus GG. In kind it is cell-based, Lactobacillus rhamnosus. The procedure:
as §3

For a further assay, the system named is B. longum. As to the kind of experiment: Activity spectrum at 200 μM, B. longum. The assay is classed as cell-based, Bifidobacterium longum. As for the experimental part: as §3
For the next assay, the system named is B. thetaiolaomicron. As to the kind of experiment: Activity spectrum at 200 μM, B. thetaiotaomicron. The assay is classed as cell-based. The procedure: as §3
For assay [4], the system named is PhoP regulon in S. typhimurium. The note with it: four HTS, PubChem AID #1863, #1981, #2253, #2401; cited from earlier work.
Another assay has as its system B. adolescentis. Description: Activity spectrum at 200 μM, B. adolescentis. The assay is classed as cell-based, Bifidobacterium adolescentis. As for the experimental part: as §3
For the next assay, the system named is E. faecalis. Description: Activity spectrum at 200 μM, E. faecalis. The assay is classed as cell-based, Enterococcus faecalis. As for the experimental part: as §3
The test system of the next assay is L. brevis. Description: Activity spectrum at 200 μM, L. brevis. The assay is classed as cell-based, Lactobacillus brevis. The procedure:
as §3

The structures appear in SMILES notation.

As to `CCCCCCCCCCCCCCCCn1c[n+](C)c2ccccc21.[Br-]` [SM4, 1-hexadecyl-3-methyl-1H-3,1-benzimidazol-3-ium bromide], the “effect against Avian Pathogenic E. coli” value in [1] is listed as “lethal”. For the same molecule, in [2], the “concentration killing biofilm-protected Salmonella” value was 0.6 ×MBC.
Regarding `CCCCCCCCCCCCCCCC[n+]1ccn(CC#N)c1.[Cl-]` [SM3, 1-(cyanomethyl)-3-hexadecyl-1H-imidazol-3-ium chloride], the “effect against Avian Pathogenic E. coli” value in assay [1] was “lethal”.
As for `CC1CCC(C(C)C)C(OC(=O)Cn2c[n+](CC(=O)OC3CC(C)CCC3C(C)C)c3ccccc32)C1.[Cl-]` (stereo not drawn) [SM1, 1,3-bis{2-[(2-isopropyl-5-methylcyclohexyl)oxy]-2-oxoethyl}-1H-3,1-benzimidazol-3-ium chloride], in assay [3] (TYPHIMURIUM, HD11, read-out: IC 50% (μm), HD11 cells), the IC50 was < 6.25 µM. For the same molecule, the MBC in assay [3] (S. Typhimurium-infected HD11 cells, 24 hrs treatment) worked out at 12.5 µM. For the same molecule, in the assay on C. clostridioforme, the “growth effect on C. clostridioforme” value is on record as “no growth inhibition effect”. Also, the “effect against C. jejuni 81-176” value with C. jejuni 81-176 was “bactericidal effects”.
Turning to `CCOc1cc(/C=N/N=C(N)N)ccc1OCc1ccc(Cl)cc1` [SM5, N″-{4-[(4-chlorobenzyl)oxy]-3-ethoxybenzylidene}carbonohydrazonic diamide], the “growth effect on L. rhamnosus GG” value in the assay on L. rhamnosus GG is recorded as “no effect”. The “growth effect on B. longum” value in the assay on B. longum was “no effect”. In addition, the “growth effect on B. thetaiolaomicron” value with B. thetaiolaomicron is reported as “no effect”. Also, in [4], the “inhibition of the PhoP regulon in S. typhimurium” value is given as “direct or indirect inhibitor”. The “growth effect on B. adolescentis” value in the assay on B. adolescentis is given as “no effect”. Moreover, in [2], the “concentration killing biofilm-protected Salmonella” value is given as 0.4 ×MBC. Besides, in the assay on E. faecalis, the “growth effect on E. faecalis” value is given as “no effect”. Besides, the “growth effect on L. brevis” value in the assay on L. brevis was “no effect”.
